From publication PMC10300102, “In vivo inhibition of nuclear ACE2 translocation protects against SARS-CoV-2 replication and lung damage through epigenetic imprinting” (Nature Communications, 2023) come the findings set out here.

Where a SMILES comes first, the peptide text is derived from it. The star is where a group is joined. Myristoyl = CCCCCCCCCCCCCC(=O)*

The target of test [1] is T1, ACE2-IMPα interactions in H1299 cells (Homo sapiens, UniProt P52294).
T1 construct: endogenous in cells; host or cells: NCI-H1299
T1 sequence (P52294 whole entry): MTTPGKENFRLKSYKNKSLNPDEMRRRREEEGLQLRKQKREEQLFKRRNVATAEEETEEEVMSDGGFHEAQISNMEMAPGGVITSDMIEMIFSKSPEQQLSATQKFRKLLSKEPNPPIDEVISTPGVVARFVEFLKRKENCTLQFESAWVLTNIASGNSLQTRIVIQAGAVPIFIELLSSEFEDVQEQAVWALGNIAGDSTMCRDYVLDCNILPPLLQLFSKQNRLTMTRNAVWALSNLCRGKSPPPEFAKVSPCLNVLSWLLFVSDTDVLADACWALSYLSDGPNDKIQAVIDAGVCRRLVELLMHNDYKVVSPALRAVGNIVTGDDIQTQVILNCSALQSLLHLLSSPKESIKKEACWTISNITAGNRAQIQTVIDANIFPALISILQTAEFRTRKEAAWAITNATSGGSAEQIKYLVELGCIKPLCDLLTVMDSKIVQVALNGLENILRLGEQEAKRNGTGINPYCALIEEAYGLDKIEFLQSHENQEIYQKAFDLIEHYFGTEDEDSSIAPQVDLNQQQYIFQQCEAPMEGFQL
The test is described as follows: Duolink proximity ligation assay. It is filed as cell-based. Conditions: 0.0015, 0.0977 and 6.25 µM. The protocol: The Duolink proximity ligation assay was used with PLA probe anti-mouse PLUS (DUO92001), PLA probe anti-rabbit MINUS (DUO92005), and the Duolink In Situ Detection Reagent Red kit (DUO92008) (Sigma-Aldrich). Cells were fixed, permeabilized, and incubated with primary ACE2 antibodies targeting the NLS region and IMPα1 (staining conditions are shown in Supplementary Table 4). Cells were processed according to the manufacturer’s instructions. Finally, coverslips were mounted onto slides and examined as above. Image segmentation and analysis were carried out using QuPath open software (version 0.4.3) for bioimage analysis[64] with a custom script. An analysis workflow was developed with the following steps: (i) threshold-based cell detection using DAPI staining to create a mask for detected nuclei along with a 5 µm cell expansion setting to denote the cell cytoplasm boundary; and (ii) use of the QuPath subcellular detection module to detect the Duolink-positive spots in the Alexa Fluor 555 channel in each cell. The two functions were wrapped in a script to allow for batch analysis of images and data export. Total dots were counted per cell and then averaged for each cell and experimental group; approximately 100 cells were counted per group.

The test system of test [2] is PBMCs. It is filed as cell-based, human. As to conditions: 10 µM 24 h.
Test [3] has as its system H3K27ac. On the set-up: species or system golden Syrian hamsters. Conditions: hamster, in vivo.

As for `CCCCCCCCCCCCCC(=O)N[C@H](C(=O)NCC(=O)N[C@H](C(=O)N[C@@H](CCCNC(=N)N)C(=O)N[C@@H](CC(=O)O)C(=O)N[C@@H](CCCNC(=N)N)C(=O)N[C@@H](CCCCN)C(=O)N[C@@H](CCCCN)C(=O)N[C@@H](CCCCN)C(=O)N[C@@H](CC(N)=O)C(=O)N[C@@H](CCCCN)C(=O)N[C@@H](C)C(=O)N[C@@H](CCCNC(=N)N)C(=O)N[C@@H](CO)C(=O)O)[C@@H](C)CC)[C@@H](C)O` [NACE2i] (Myristoyl-TGIRDRKKKNKARS-OH), the “ACE2-IMPα interactions (Duolink)” value in test [1] is “significantly inhibited ACE2-IMPα interactions in a dose-dependent manner”. Besides, in test [2], the IL-6 expression result is “reduced” and the perforin expression result is “increased”. Besides, in test [3], the “H3K27ac along with ACE2me in lung tissues” value is listed as “significant H3K27ac induction”.
